The results in this text go back to patent US5324648A, “Substituted isocoumarins as serine protease inhibitors and anti-inflammatory agents” (Georgia Tech Research Corporation, priority 1992, dated 1994).

The target in one data set is T1, human factor Xa (Homo sapiens, UniProt P00742).
T1 construct: human factor Xa
The data set can be described thus: Inactivation rate of human factor Xa. It is filed as biochemical. The following applies: pH 7.5, 25° C, read-out: kobs/[I]. An outline of the steps:
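Incubation method: isocoumarin inhibitor in Me2SO added to enzyme (0.01-2.3 μM) in 0.1M Hepes, 0.01M CaCl2, pH 7.5, 8-12% Me2SO, 25° C; aliquots withdrawn over time for residual activity against peptide thioester or 4-nitroanilide substrates. kobs from ln(vt/vo) vs time.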

In a further data set the target is T2, Bb (Homo sapiens, UniProt P00751).
T2 construct: active fragments C2a, Bb
T2 sequence (P00751 260-764 limits assumed): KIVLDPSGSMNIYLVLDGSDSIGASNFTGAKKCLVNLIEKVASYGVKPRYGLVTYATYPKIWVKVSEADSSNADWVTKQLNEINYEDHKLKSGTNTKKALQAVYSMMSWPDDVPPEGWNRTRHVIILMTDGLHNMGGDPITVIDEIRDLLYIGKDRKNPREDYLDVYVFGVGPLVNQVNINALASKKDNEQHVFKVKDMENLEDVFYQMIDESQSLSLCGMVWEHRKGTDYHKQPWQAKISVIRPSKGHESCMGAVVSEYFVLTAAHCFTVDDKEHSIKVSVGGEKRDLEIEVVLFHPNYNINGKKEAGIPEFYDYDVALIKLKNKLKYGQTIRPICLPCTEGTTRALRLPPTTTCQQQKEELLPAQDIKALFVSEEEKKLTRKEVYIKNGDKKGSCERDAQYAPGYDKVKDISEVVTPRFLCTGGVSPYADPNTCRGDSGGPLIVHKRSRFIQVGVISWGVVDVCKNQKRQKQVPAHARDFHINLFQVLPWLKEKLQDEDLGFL
The experiment in a line: Inactivation rate of complement fragment Bb. The following applies: Table II; pH 7.5, 25° C; [I] 0.05 to 1.25 mM; read-out: kobs/[I]. It is filed as biochemical. The method, then:
(§1) Inactivation rates of serine proteases by substituted isocoumarins were measured by the incubation method. An aliquot of inhibitor (25 or 50 μl) in Me2 SO was added to a buffered enzyme solution (0.01-2.3 μM) to initiate the inactivation. Aliquots (50 μl) were withdrawn at various intervals and the residual enzymatic activity was measured. Me2 SO concentration in the reaction mixture was 8-12% (v/v). 0.1 Hepes, 0.01M CaCl2, pH 7.5 buffer was utilized for trypsin and coagulation enzymes. 0.1M Hepes, 0.5M NaCl, pH 7.5 was utilized for other serine proteases. The inhibitor concentrations are shown in all the tables. Peptide thioesters or peptide nitroanilides with appropriate sequence were used as substrates for various serine proteases. All peptide thioester hydrolysis rates were measured with assay mixtures containing 4,4'-dithiodipyridine (ε324 =19800M^-1 cm^-1; Grasetti & Murray, Arch. Biochem. Biophys. 119, pp 41-49 (1967)). Peptide 4-nitroanilide nitroanilide hydrolysis was measured at 410 nm (ε410 =8800M^-1 cm^-1; Erlanger et al., Arch. Biochem. Biophys. 95, pp 271-278 (1961)). First order inactivation rate constant (kobs) were obtained from plots of ln (vt /vo) vs time, and the correlation coefficients were greater than 0.98.
(§2) ^a Conditions were 0.1M Hepes, 0.5M NaCl, pH 7.5, 8-10% Me2 SO
(§3) and 25° C. Inactivation rates were measured by incubation method.
(§4) Enzyme concentrations were as follows: protein D, 1-9 μM; C2, 0.7-1
(§5) μM; B, 1.8 μM; Bb, 0.3-0.8 μM; Cl^- s, 0.07 μM; Cl^-

Data set [1] in a line: Spontaneous hydrolysis in human plasma. It is filed as in vitro ADME. The settings on record: for half-life: human plasma, read-out: t1/2 for spontaneous hydrolysis.
Data set [2] in a line: Prothrombin time (PT), rabbit plasma. The method, then: ^a Plasma and inhibitor were incubated at 37° C. for 1 min.,
Dade thromboplastin reagent was then added.
^b Plasma and inhibitor were incubated at 37° C. for 3 min.,
Orthobrain thromboplastin reagent was then added.

The target of the next data set is T3, complement protein C2 (Homo sapiens, UniProt P06681).
T3 sequence (P06681 21-752): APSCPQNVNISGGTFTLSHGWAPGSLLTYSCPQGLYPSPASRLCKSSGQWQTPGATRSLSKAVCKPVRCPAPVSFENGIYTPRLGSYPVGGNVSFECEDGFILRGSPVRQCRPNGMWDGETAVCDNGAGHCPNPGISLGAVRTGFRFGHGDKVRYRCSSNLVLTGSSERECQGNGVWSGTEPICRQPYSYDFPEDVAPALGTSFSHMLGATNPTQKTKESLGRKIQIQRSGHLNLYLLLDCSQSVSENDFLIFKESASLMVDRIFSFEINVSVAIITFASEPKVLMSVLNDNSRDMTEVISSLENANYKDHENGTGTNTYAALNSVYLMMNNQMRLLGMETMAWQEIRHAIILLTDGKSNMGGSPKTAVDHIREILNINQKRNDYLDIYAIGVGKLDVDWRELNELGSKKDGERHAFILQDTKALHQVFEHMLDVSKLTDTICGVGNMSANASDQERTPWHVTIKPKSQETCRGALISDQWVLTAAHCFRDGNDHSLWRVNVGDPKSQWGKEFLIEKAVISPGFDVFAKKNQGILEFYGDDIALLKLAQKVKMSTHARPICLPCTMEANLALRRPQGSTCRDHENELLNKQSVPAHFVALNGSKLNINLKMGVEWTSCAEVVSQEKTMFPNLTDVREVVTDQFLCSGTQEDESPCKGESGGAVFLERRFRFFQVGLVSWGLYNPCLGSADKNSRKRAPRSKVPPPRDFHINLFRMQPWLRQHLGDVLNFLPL
The experiment in a line: Inactivation rate of complement protein C2. It is filed as biochemical. The settings on record: for kinact/KI: Table II, pH 7.5, 25° C, [I] 0.19 to 1.25 mM, read-out: kobs/[I]. The method, then: as §1, §2, §3, §4, §5

In another data set the target is T4, human granzyme A (Homo sapiens, UniProt P12544).
T4 construct: human cytotoxic lymphocyte granzyme A; endogenous in cells; host or cells: human cytotoxic lymphocytes
T4 sequence (P12544 29-262): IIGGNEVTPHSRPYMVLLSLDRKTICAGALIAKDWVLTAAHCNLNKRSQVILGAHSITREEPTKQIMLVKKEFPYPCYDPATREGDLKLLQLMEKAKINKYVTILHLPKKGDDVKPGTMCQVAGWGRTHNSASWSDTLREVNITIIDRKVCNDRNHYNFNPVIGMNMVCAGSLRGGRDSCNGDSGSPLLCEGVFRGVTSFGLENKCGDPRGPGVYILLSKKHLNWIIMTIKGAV
The data set can be described thus: Inactivation rate of human granzyme A. It is filed as biochemical. The following applies: Table VII; pH 7.5, 25° C; [I] 0.4 to 45 μM; read-out: kobs/[I]. How it is done:
as §1
^a Inactivation rates were measured at 0.1M Hepes, 0.01M CaCl2,
pH 7.5, 8% Me2 SO and 25° C. by incubation method. ZArg-SBzl
(74-85 μM) was used as the substrate to monitor the residual enzymatic

A further data set concerns the target T5, human factor VIIa (Homo sapiens, UniProt P08709).
T5 construct: human factor VIIa
T5 sequence (P08709 213-466 limits assumed): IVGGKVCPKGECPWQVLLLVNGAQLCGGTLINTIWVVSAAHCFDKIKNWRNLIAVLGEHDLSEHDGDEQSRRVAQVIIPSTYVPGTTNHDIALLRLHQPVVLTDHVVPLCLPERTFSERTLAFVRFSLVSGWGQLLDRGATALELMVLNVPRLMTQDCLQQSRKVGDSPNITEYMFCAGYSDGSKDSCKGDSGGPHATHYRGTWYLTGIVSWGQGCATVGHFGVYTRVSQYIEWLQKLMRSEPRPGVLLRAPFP
T5 sequence (P08709 61-212 partner limits assumed): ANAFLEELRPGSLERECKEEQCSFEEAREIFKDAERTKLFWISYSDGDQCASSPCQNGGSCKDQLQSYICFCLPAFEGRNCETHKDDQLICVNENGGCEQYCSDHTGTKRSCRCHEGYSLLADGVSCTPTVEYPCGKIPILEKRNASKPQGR
The experiment in a line: Inactivation rate of human factor VIIa. It is filed as biochemical. The settings on record: Table I; pH 7.5, 25° C; [I] 5 to 44 μM; read-out: kobs/[I].

Structures are written as SMILES. Where two headings read alike, the source gives them in different places.

T1 sequence (P00742 235-488 limits assumed): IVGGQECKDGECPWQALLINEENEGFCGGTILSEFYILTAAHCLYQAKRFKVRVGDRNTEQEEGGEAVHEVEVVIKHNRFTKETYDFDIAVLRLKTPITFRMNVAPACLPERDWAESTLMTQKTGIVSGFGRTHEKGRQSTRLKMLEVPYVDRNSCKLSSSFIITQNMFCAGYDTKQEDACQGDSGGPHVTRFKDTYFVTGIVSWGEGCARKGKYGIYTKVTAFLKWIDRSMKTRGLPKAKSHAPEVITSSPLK
T1 sequence (P00742 41-179 partner limits assumed): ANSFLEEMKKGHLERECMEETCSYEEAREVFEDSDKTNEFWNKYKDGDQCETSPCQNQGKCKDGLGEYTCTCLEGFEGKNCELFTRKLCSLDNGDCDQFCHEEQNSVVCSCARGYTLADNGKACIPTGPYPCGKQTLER

With `N=C(N)Nc1ccc2c(Cl)c(OCCc3ccccc3)oc(=O)c2c1` [7-guanidino-4-chloro-3-(2-phenylethoxy)isocoumarin], the kinact/KI at human factor Xa (Table I, [I] 5 to 105 μM) worked out at 11000 M⁻¹ s⁻¹; on Bb it was 58 M⁻¹ s⁻¹. Also, the half-life in data set [1] was found to be 4.5 min.
Turning to `O=c1oc(Cl)c(Cl)c2ccccc12` [3,4-dichloroisocoumarin, reference compound], the PT in data set [2] ([I] 33 μM, 3 min, Orthobrain thromboplastin) was 14.3 s. For the same compound, the “inhibition of C2 (in words)” value against complement protein C2 is on record as “do not show any inhibition”. The kinact/KI at human granzyme A was 50 M⁻¹ s⁻¹.
With `N=C(N)SCCCOc1oc(=O)c2cc(N)ccc2c1Cl` [7-amino-4-chloro-3-(3-isothiureidopropoxy)isocoumarin], the kinact/KI on human factor Xa (Table I, [I] 5 to 105 μM) worked out at 60 M⁻¹ s⁻¹; at human factor VIIa, 430 M⁻¹ s⁻¹; at human granzyme A, 6750 M⁻¹ s⁻¹. Further, the PT stood at 13.7 s in data set [2] ([I] 33 μM, 1 min, Dade thromboplastin) and 62.0 s in data set [2] ([I] 131 μM, 1 min, Dade thromboplastin). The “stability in human plasma (in words)” value in data set [1] is reported as “fairly stable”. The half-life in data set [1] was 165 min.
For the compound `N=C(N)SCCOc1oc(=O)c2ccccc2c1Cl` [3-(2-isothiureidoethoxy)-4-chloroisocoumarin], the kinact/KI on Bb was found to be 15 M⁻¹ s⁻¹; at complement protein C2, 1.5 M⁻¹ s⁻¹.
As for `COc1oc(=O)c2cc(NC(=N)N)ccc2c1Cl` [7-guanidino-4-chloro-3-methoxyisocoumarin], the kinact/KI stood at 11000 M⁻¹ s⁻¹ on human factor Xa (Table I, [I] 5 to 105 μM) and 74 M⁻¹ s⁻¹ on Bb. In addition, in data set [1], the half-life was 6.7 min.
Turning to `NCCCOc1oc(=O)c2ccccc2c1Cl` [3-(3-aminopropoxy)-4-chloroisocoumarin], the kinact/KI at human granzyme A turned out to be 2010 M⁻¹ s⁻¹.
Consider `CCOc1oc(=O)c2cc(NC(=N)N)ccc2c1Cl` [7-guanidino-3-ethoxy-4-chloroisocoumarin, 7-guanidino-4-chloro-3-ethoxyisocoumarin], for which the kinact/KI amounted to 11000 M⁻¹ s⁻¹ at human factor Xa (Table I, [I] 5 to 105 μM); 95 M⁻¹ s⁻¹ at Bb; 2200 M⁻¹ s⁻¹ at human factor VIIa; 6850 M⁻¹ s⁻¹ at human granzyme A. Further, the PT was 14.2 s in data set [2] ([I] 15 μM, 1 min, Dade thromboplastin); 27.4 s in data set [2] ([I] 31 μM, 1 min, Dade thromboplastin); 17.2 s in data set [2] ([I] 31 μM, 3 min, Orthobrain thromboplastin); more than 120 s in data set [2] ([I] 124 μM, 3 min, Orthobrain thromboplastin). Further, in data set [1], the half-life is 8.2 min.
With `N=C(N)SCCCOc1oc(=O)c2ccccc2c1Cl` [3-(3-isothiureidopropoxy)-4-chloroisocoumarin], the kinact/KI came to 0.8 M⁻¹ s⁻¹ at Bb, 450 M⁻¹ s⁻¹ on human factor VIIa, 0.5 M⁻¹ s⁻¹ at complement protein C2 and 18400 M⁻¹ s⁻¹ at human granzyme A. Further, the half-life in data set [1] stood at 0.5 min.
With `N=C(N)SCCOc1oc(=O)c2cc(NC(=O)Nc3ccccc3)ccc2c1Cl` [PhNHCONH-CiTEtOIC, 7-(phenylcarbamoylamino)-4-chloro-3-(2-isothiureidoethoxy)isocoumarin], the kinact/KI at human factor Xa (Table VIII, [I] 3.6-44 μM) amounted to 4740 M⁻¹ s⁻¹.
